Source: publication PMC8091729 (Bioorganic & Medicinal Chemistry Letters, 2021)

Columns and labels:
SARS-CoV-2 = assay: Image-based antiviral assay; type: cell-based; settings: CC50/EC50
COVID-19 = settings: patients with COVID-19; cited from earlier work

SMILES	selectivity index (SARS-CoV-2)	benefit in clinical trials (COVID-19) [%]
O=C(Cn1c2ccccc2n2c(=O)cc(-c3ccc(Cl)cc3)nc12)Nc1ccc(F)cc1F [Compound 7]	more than 10	
CCC(CC)COC(=O)[C@H](C)N[P@](=O)(OC[C@H]1O[C@@](C#N)(c2ccc3c(N)ncnn23)[C@H](O)[C@@H]1O)Oc1ccccc1 [Remdesivir]		68
